Assay results from US8106055B2, “Substituted amide compounds” (Gruenenthal GmbH, priority 2007, dated 2012).

How the values were obtained:
human μ opiate receptor = target: T1, human μ opiate receptor (Homo sapiens, UniProt P35372); test: Affinity for the human μ opiate receptor ([3H]-naloxone displacement, CHO-K1 receptor membrane preparation, SPA); format: binding; conditions: test concentration of 1 μM; read-out: μ (binding on the μ opioid receptor, % inhibition)
T1 construct: purchased PerkinElmer Life Sciences, Zaventem, Belgium RB-HOM; host or cells: CHO-K1 cells (membrane preparation)
T1 sequence (P35372 whole entry): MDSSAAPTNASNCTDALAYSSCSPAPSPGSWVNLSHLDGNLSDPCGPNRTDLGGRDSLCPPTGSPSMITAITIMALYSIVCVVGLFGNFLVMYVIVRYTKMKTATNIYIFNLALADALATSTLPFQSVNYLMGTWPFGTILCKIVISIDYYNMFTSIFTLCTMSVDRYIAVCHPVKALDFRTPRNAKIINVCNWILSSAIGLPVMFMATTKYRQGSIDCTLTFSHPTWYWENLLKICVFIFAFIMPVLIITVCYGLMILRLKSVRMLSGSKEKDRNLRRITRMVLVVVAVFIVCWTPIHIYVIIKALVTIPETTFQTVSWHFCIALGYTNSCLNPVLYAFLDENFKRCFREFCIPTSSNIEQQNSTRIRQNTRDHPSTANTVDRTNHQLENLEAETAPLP
Method in brief: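 Readout is percent displacement of [3H]-naloxone (1 nmol/l) from human μ receptor in CHO-K1 membranes, measured at 1 μmol/l compound. Incubation runs 90 minutes at room temperature with WGA-SPA beads in Tris-HCl/BSA buffer; non-specific binding is defined with 100 μmol/l naloxone.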

[1] = target: T2, serotonin (5-HT) reuptake (Rattus norvegicus, UniProt P31652); test: Inhibition of serotonin (5HT) reuptake in synaptosomes from rat brain; format: biochemical; conditions: test concentration of 10 μM; read-out: 5-HT (inhibition of reuptake of serotonin, % inhibition)
T2 construct: synaptosomes are freshly isolated from areas of the rat brain; from tissue; host or cells: rat brain synaptosomes (P2 fraction)
T2 sequence (P31652 whole entry): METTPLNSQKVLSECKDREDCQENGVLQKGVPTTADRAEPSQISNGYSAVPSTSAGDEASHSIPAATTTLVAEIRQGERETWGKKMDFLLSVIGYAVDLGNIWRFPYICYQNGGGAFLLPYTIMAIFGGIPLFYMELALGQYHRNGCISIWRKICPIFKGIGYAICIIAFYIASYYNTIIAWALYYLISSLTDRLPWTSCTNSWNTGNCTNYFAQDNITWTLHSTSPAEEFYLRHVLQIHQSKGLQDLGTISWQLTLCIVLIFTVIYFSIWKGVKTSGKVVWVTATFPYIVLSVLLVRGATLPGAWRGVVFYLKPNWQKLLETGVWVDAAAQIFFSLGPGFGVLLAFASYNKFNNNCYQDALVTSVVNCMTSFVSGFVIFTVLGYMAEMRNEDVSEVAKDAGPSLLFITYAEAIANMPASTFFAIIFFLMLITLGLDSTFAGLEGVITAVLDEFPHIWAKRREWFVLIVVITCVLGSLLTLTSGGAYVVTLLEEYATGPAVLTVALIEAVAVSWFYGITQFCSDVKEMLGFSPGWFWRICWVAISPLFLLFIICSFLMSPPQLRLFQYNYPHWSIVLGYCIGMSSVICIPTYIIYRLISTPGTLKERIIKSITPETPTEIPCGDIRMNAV
Method in brief: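 Freshly isolated rat brain synaptosomes (P2 fraction) used for 5-HT reuptake. Test compound at 10 μM, activity given as % inhibition.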

Work on `CN(C)C(c1cccs1)C1CCC(CCNC(=O)COCCN(C)S(=O)(=O)c2ccc(Cl)cc2Cl)CC1` (stereo not shown) [Example 9, 2-(2-(2,4-dichloro-N-methylphenylsulfonamido)ethoxy)-N-(2-(4-((dimethylamino) (thiophen-2-yl)methyl)cyclohexyl)ethyl)acetamide] yielded an inhibition at 1 µM (human μ opiate receptor) of 98% and an inhibition at 10 µM [1] of 91%.

`CN(C)C(c1cccs1)C1CCC(NC(=O)COCCN(C)S(=O)(=O)c2ccc(F)cc2)CC1` (stereo not shown) [Example 10, N-(4-((dimethylamino)(thiophen-2-yl)methyl)cyclohexyl)-2-(2-(4-fluoro-N-methylphenylsulfonamido)ethoxy)acetamide] gave an inhibition at 1 µM (human μ opiate receptor) of 98% and an inhibition at 10 µM [1] of 76%.

`CN(C)C(c1cccs1)C1CCC(NC(=O)COC2CCN(S(=O)(=O)c3cccc(C(F)(F)F)c3)C2)CC1` (stereo not shown) [Example 11, N-(4-((dimethylamino)(thiophen-2-yl)methyl)cyclohexyl)-2-(1-(3-(trifluoromethyl)phenylsulfonyl)pyrrolidin-3-yloxy)acetamide] gave an inhibition at 1 µM (human μ opiate receptor) of 98% and an inhibition at 10 µM [1] of 86%.

With `Cc1cc(C)c(S(=O)(=O)N2CCC(OCC(=O)NC3CCC(C(c4cccs4)N(C)C)CC3)C2)c(C)c1` (stereo not shown) [Example 12, N-(4-((dimethylamino)(thiophen-2-yl)methyl)cyclohexyl)-2-(1-(mesitylsulfonyl)pyrrolidin-3-yloxy)acetamide] the inhibition at 1 µM (human μ opiate receptor) was 98% and the inhibition at 10 µM [1] was 79%.

Compound `CN(C)C(c1ccccc1)C1CCC(CNC(=O)COCCN(C)S(=O)(=O)c2c(Cl)cccc2Cl)CC1` (stereo not shown) [Example 13, 2-(2-(2,6-dichloro-N-methylphenylsulfonamido)ethoxy)-N-((4-((dimethylamino)(phenyl)methyl)cyclohexyl)methyl)acetamide] has an inhibition at 1 µM (human μ opiate receptor) of 98% and an inhibition at 10 µM [1] of 84%.

Work on `CN(C)C(c1ccccc1)C1CCC(CNC(=O)COCCN(C)S(=O)(=O)c2c(Cl)cc(Cl)cc2Cl)CC1` (stereo not shown) [Example 14, N-((4-((dimethylamino)(phenyl)methyl)cyclohexyl)methyl)-2-(2-(2,4,6-trichloro-N-methylphenylsulfonamido)ethoxy)acetamide] yielded an inhibition at 1 µM (human μ opiate receptor) of 98% and an inhibition at 10 µM [1] of 99%.

Work on `CN(C)C(c1ccccc1)C1CCC(CNC(=O)COCCN(Cc2ccccc2)S(=O)(=O)c2ccccc2)CC1` (stereo not shown) [Example 15, 2-(2-(N-benzylphenylsulfonamido)ethoxy)-N-((4-((dimethylamino)(phenyl)methyl)cyclohexyl)methyl)acetamide] yielded an inhibition at 1 µM (human μ opiate receptor) of 98% and an inhibition at 10 µM [1] of 99%.

`CCN(CCOCC(=O)NCC1CCC(C(c2cccs2)N(C)C)CC1)S(=O)(=O)c1c(C)cc(OC)c(C)c1C` (stereo not shown) [Example 16, N-((4-((dimethylamino)(thiophen-2-yl)methyl)cyclohexyl)methyl)-2-(2-(N-ethyl-4-methoxy-2,3,6-trimethylphenylsulfonamido)ethoxy)acetamide] gave an inhibition at 1 µM (human μ opiate receptor) of 98% and an inhibition at 10 µM [1] of 98%.

For `CN(C)C(c1ccccc1)C1CCC(CNC(=O)COCC2CCCCN2S(=O)(=O)c2ccc(Cl)c(Cl)c2)CC1` (stereo not shown) [Example 17, 2-((1-(3,4-dichlorophenylsulfonyl)piperidin-2-yl)methoxy)-N-((4-((dimethylamino)(phenyl)methyl)cyclohexyl)methyl)acetamide], the inhibition at 1 µM (human μ opiate receptor) was 98% and the inhibition at 10 µM [1] was 93%.

`CN(C)C(c1ccccc1)C1CCC(CNC(=O)COCC2CCCN2S(=O)(=O)c2ccc(Cl)c(Cl)c2)CC1` (stereo not shown) [Example 18, 2-((1-(3,4-dichlorophenylsulfonyl)pyrrolidin-2-yl)methoxy)-N-((4-((dimethylamino)(phenyl)methyl)cyclohexyl)methyl)acetamide] was tested, and the inhibition at 1 µM (human μ opiate receptor) was 98% and the inhibition at 10 µM [1] was 95%.

Compound `COc1ccc(S(=O)(=O)N2Cc3ccccc3CC2COCC(=O)NCC2CCC(C(c3ccccc3)N(C)C)CC2)cc1` (stereo not shown) [Example 19, N-((4-((dimethylamino)(phenyl)methyl)cyclohexyl)methyl)-2-((2-(4-methoxyphenylsulfonyl)-1,2,3,4-tetrahydroisoquinolin-3-yl)methoxy)acetamide] has an inhibition at 1 µM (human μ opiate receptor) of 98% and an inhibition at 10 µM [1] of 92%.

`COc1cc(C)c(S(=O)(=O)N2CCN(CCOCC(=O)NC3CCC(C(c4ccccc4)N(C)C)CC3)CC2)c(C)c1C` (stereo not shown) [Example 20, N-(4-((dimethylamino)(phenyl)methyl)cyclohexyl)-2-(2-(4-(4-methoxy-2,3,6-trimethylphenylsulfonyl)piperazin-1-yl)ethoxy)acetamide] gave an inhibition at 1 µM (human μ opiate receptor) of 97% and an inhibition at 10 µM [1] of 96%.

With `CN(C)C(c1cccs1)C1CCC(CCNC(=O)COC2CCN(S(=O)(=O)c3ccc(Cl)cc3Cl)C2)CC1` (stereo not shown) [Example 21, 2-(1-(2,4-dichlorophenylsulfonyl)pyrrolidin-3-yloxy)-N-(2-(4-((dimethylamino)(thiophen-2-yl)methyl)cyclohexyl)ethyl)acetamide] the inhibition at 1 µM (human μ opiate receptor) was 97% and the inhibition at 10 µM [1] was 94%.

In the case of `COc1ccc(S(=O)(=O)N2CCC(OCC(=O)NCC3CCC(C(c4ccccc4)N(C)C)CC3)C2)cc1OC` (stereo not shown) [Example 22, 2-(1-(3,4-dimethoxyphenylsulfonyl)pyrrolidin-3-yloxy)-N-((4-((dimethylamino)(phenyl)methyl)cyclohexyl)methyl)acetamide], the inhibition at 1 µM (human μ opiate receptor) was 97% and the inhibition at 10 µM [1] was 87%.

In the case of `COc1ccc(S(=O)(=O)N2CCC(OCC(=O)NCC3CCC(C(c4cccs4)N(C)C)CC3)C2)cc1OC` (stereo not shown) [Example 23, 2-(1-(3,4-dimethoxyphenylsulfonyl)pyrrolidin-3-yloxy)-N-((4-((dimethylamino)(thiophen-2-yl)methyl)cyclohexyl)methyl)acetamide], the inhibition at 1 µM (human μ opiate receptor) was 97% and the inhibition at 10 µM [1] was 82%.

`CN(C)C(c1cccs1)C1CCC(CNC(=O)COC2CCN(S(=O)(=O)c3cccc(C(F)(F)F)c3)C2)CC1` (stereo not shown) [Example 25, N-((4-((dimethylamino)(thiophen-2-yl)methyl)cyclohexyl)methyl)-2-(1-(3-(trifluoromethyl)phenylsulfonyl)pyrrolidin-3-yloxy)acetamide] was tested, and the inhibition at 1 µM (human μ opiate receptor) was 97% and the inhibition at 10 µM [1] was 82%.

For `Cc1cc(C)c(S(=O)(=O)N2CCC(OCC(=O)NCC3CCC(C(c4ccccc4)N(C)C)CC3)C2)c(C)c1` (stereo not shown) [Example 26, N-((4-((dimethylamino)(phenyl)methyl)cyclohexyl)methyl)-2-(1-(mesitylsulfonyl)pyrrolidin-3-yloxy)acetamide], the inhibition at 1 µM (human μ opiate receptor) was 97% and the inhibition at 10 µM [1] was 83%.

`Cc1cc(C)c(S(=O)(=O)N2CCC(OCC(=O)NCC3CCC(C(c4cccs4)N(C)C)CC3)C2)c(C)c1` (stereo not shown) [Example 27, N-((4-((dimethylamino)(thiophen-2-yl)methyl)cyclohexyl)methyl)-2-(1-(mesitylsulfonyl)pyrrolidin-3-yloxy)acetamide] was tested, and the inhibition at 1 µM (human μ opiate receptor) was 97% and the inhibition at 10 µM [1] was 84%.

`CN(C)C(c1cccs1)C1CCC(NC(=O)COC2CCN(S(=O)(=O)c3ccc(F)cc3)C2)CC1` (stereo not shown) [Example 28, N-(4-((dimethylamino)(thiophen-2-yl)methyl)cyclohexyl)-2-(1-(4-fluorophenylsulfonyl)pyrrolidin-3-yloxy)acetamide] was tested, and the inhibition at 1 µM (human μ opiate receptor) was 97% and the inhibition at 10 µM [1] was 76%.

`COc1cc(C)c(S(=O)(=O)N2CCCC(OCC(=O)NCC3CCC(C(c4ccccc4)N(C)C)CC3)C2)c(C)c1C` (stereo not shown) [Example 29, N-((4-((dimethylamino)(phenyl)methyl)cyclohexyl)methyl)-2-(1-(4-methoxy-2,3,6-trimethylphenylsulfonyl)piperidin-3-yloxy)acetamide] gave an inhibition at 1 µM (human μ opiate receptor) of 97% and an inhibition at 10 µM [1] of 93%.

For `COc1ccc(S(=O)(=O)N2CCCCC2COCC(=O)NCCC2CCC(C(c3cccs3)N(C)C)CC2)cc1` (stereo not shown) [Example 30, N-(2-(4-((dimethylamino)(thiophen-2-yl)methyl)cyclohexyl)ethyl)-2-((1-(4-methoxyphenylsulfonyl)piperidin-2-yl)methoxy)acetamide], the inhibition at 1 µM (human μ opiate receptor) was 97% and the inhibition at 10 µM [1] was 98%.

`CN(C)C(c1cccs1)C1CCC(CNC(=O)COC2CCCCC2N(C)S(=O)(=O)c2ccc(Cl)c(Cl)c2)CC1` (stereo not shown) [Example 31, 2-(2-(3,4-dichloro-N-methylphenylsulfonamido)cyclohexyloxy)-N-((4-((dimethylamino)(thiophen-2-yl)methyl)cyclohexyl)methyl)acetamide] showed an inhibition at 1 µM (human μ opiate receptor) of 97% and an inhibition at 10 µM [1] of 88%.

In the case of `CN(C)C(c1cccs1)C1CCC(CCNC(=O)COCCN(C)S(=O)(=O)c2cccc(C(F)(F)F)c2)CC1` (stereo not shown) [Example 32, N-(2-(4-((dimethylamino)(thiophen-2-yl)methyl)cyclohexyl)ethyl)-2-(2-(N-methyl-3-(trifluoromethyl)phenylsulfonamido)ethoxy)acetamide], the inhibition at 1 µM (human μ opiate receptor) was 97% and the inhibition at 10 µM [1] was 97%.

`CN(C)C(c1ccccc1)C1CCC(NC(=O)COCCN(C)S(=O)(=O)c2ccc(Cl)cc2Cl)CC1` (stereo not shown) [Example 33, 2-(2-(2,4-dichloro-N-methylphenylsulfonamido)ethoxy)-N-(4-((dimethylamino)(phenyl)methyl)cyclohexyl)acetamide] showed an inhibition at 1 µM (human μ opiate receptor) of 49% and an inhibition at 10 µM [1] of 73%.

Work on `CN(C)C(c1ccccc1)C1CCC(NC(=O)COCCN(C)S(=O)(=O)c2c(F)c(F)c(F)c(F)c2F)CC1` (stereo not shown) [Example 136, N-(4-((dimethylamino)(phenyl)methyl)cyclohexyl)-2-(2-(2,3,4,5,6-pentafluoro-N-methylphenylsulfonamido)ethoxy)acetamide] yielded an inhibition at 1 µM (human μ opiate receptor) of 89% and an inhibition at 10 µM [1] of 83%.

`COc1cc(C)c(S(=O)(=O)N(C)CCOCC(=O)NCC2CCC(C(c3ccccc3)N(C)C)CC2)c(C)c1` (stereo not shown) [Example 137, N-((4-((dimethylamino)(phenyl)methyl)cyclohexyl)methyl)-2-(2-(4-methoxy-N,2,6-trimethylphenylsulfonamido)ethoxy)acetamide] was tested, and the inhibition at 1 µM (human μ opiate receptor) was 89% and the inhibition at 10 µM [1] was 89%.
